According to the supplement of paper PMC10307832:

Assays:
Assay in all cases: relative viability (nuclei count vs DMSO), 5 days (fraction); higher = more cells survive
BAY61-3606 + Olaparib = compound: COC1=C(C=C(C=C1)C2=CC3=NC=CN3C(=N2)NC4=C(C=CC=N4)C(=O)N)OC [BAY61-3606] + O=C(c1cc(Cc2n[nH]c(=O)c3ccccc23)ccc1F)N1CCN(C(=O)C2CC2)CC1 [Olaparib] (partner 8 µM)
Outline: (§1)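 After 5 days of treatment, lung cancer cells in 1536-well plates were fixed and stained in a single step (final 0.05% Triton X-100, 1% formaldehyde, 1 ug/ml Hoechst) and their nuclei counted on 4× images. Treatment had been applied by pin tool the day after seeding as one drug alone or as a fixed anchor-drug dose with five library-drug doses (not always all listed) in √10 steps. Relative viability is the nuclei count of treated wells divided by that of vehicle wells, and values are medians of duplicate plates.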

Doxorubicin + OSI-027 = compound: COc1cccc2c1C(=O)c1c(O)c3c(c(O)c1C2=O)C[C@@](O)(C(=O)CO)C[C@@H]3O[C@H]1C[C@H](N)[C@H](O)[C@H](C)O1 [Doxorubicin] + COc1cccc2cc(-c3nc([C@H]4CC[C@H](C(=O)O)CC4)n4ncnc(N)c34)[nH]c12 [OSI-027] (partner 0.5 µM)
Outline: as §1

Doxorubicin + Crizotinib = compound: COc1cccc2c1C(=O)c1c(O)c3c(c(O)c1C2=O)C[C@@](O)(C(=O)CO)C[C@@H]3O[C@H]1C[C@H](N)[C@H](O)[C@H](C)O1 [Doxorubicin] + C[C@@H](Oc1cc(-c2cnn(C3CCNCC3)c2)cnc1N)c1c(Cl)ccc(F)c1Cl [Crizotinib] (partner 1 µM)
Outline: as §1

Doxorubicin + Trametinib = compound: COc1cccc2c1C(=O)c1c(O)c3c(c(O)c1C2=O)C[C@@](O)(C(=O)CO)C[C@@H]3O[C@H]1C[C@H](N)[C@H](O)[C@H](C)O1 [Doxorubicin] + CC(=O)Nc1cccc(-n2c(=O)n(C3CC3)c(=O)c3c(Nc4ccc(I)cc4F)n(C)c(=O)c(C)c32)c1 [Trametinib] (partner 0.02 µM)
Outline: as §1

Cell Line | relative viability (BAY61-3606 + Olaparib; first compound 0.02 µM) | relative viability (BAY61-3606 + Olaparib; first compound 0.06325 µM) | relative viability (BAY61-3606 + Olaparib; first compound 0.2 µM) | relative viability (BAY61-3606 + Olaparib; first compound 0.6325 µM) | relative viability (BAY61-3606 + Olaparib; first compound 2 µM) | relative viability (Doxorubicin + OSI-027; first compound 0.001 µM) | relative viability (Doxorubicin + OSI-027; first compound 0.003162 µM) | relative viability (Doxorubicin + OSI-027; first compound 0.01 µM) | relative viability (Doxorubicin + OSI-027; first compound 0.03162 µM) | relative viability (Doxorubicin + OSI-027; first compound 0.1 µM) | relative viability (Doxorubicin + Crizotinib; first compound 0.001 µM) | relative viability (Doxorubicin + Crizotinib; first compound 0.003162 µM) | relative viability (Doxorubicin + Crizotinib; first compound 0.01 µM) | relative viability (Doxorubicin + Crizotinib; first compound 0.03162 µM) | relative viability (Doxorubicin + Crizotinib; first compound 0.1 µM) | relative viability (Doxorubicin + Trametinib; first compound 0.001 µM) | relative viability (Doxorubicin + Trametinib; first compound 0.003162 µM) | relative viability (Doxorubicin + Trametinib; first compound 0.01 µM) | relative viability (Doxorubicin + Trametinib; first compound 0.03162 µM) | relative viability (Doxorubicin + Trametinib; first compound 0.1 µM)
NCI-H1944 | 0.439 | 0.38 | 0.397 | 0.434 | 0.258 | 0.317 | 0.46 | 0.473 | 0.358 | 0.366 | 1.09 | 1.16 | 1.03 | 1 | 1.14 | 0.398 | 0.422 | 0.385 | 0.399 | 0.449
LCLC-103H | 0.764 | 0.786 | 0.847 | 0.758 | 0.772 | 0.482 | 0.436 | 0.516 | 0.405 | 0.454 | 1.07 | 1.06 | 1.03 | 1.06 | 1.19 | 0.704 | 0.725 | 0.697 | 0.65 | 0.623
COR-L 105 | 0.741 | 0.658 | 0.603 | 0.787 | 0.584 | 0.71 | 0.623 | 0.556 | 0.428 | 0.34 | 0.802 | 0.841 | 0.598 | 0.38 | 0.248 | 0.452 | 0.483 | 0.423 | 0.423 | 0.377
NCI-H1437 | 0.634 | 0.687 | 0.607 | 0.621 | 0.555 | 0.828 | 0.916 | 0.842 | 0.698 | 0.351 | 0.866 | 0.924 | 0.962 | 0.517 | 0.262 | 0.564 | 0.609 | 0.46 | 0.363 | 0.26
H3255 | 0.545 | 0.486 | 0.511 | 0.582 | 0.516 | 0.641 | 0.517 | 0.629 | 0.581 | 0.594 | 0.917 | 0.88 | 0.804 | 0.608 | 0.45 |  | 0.62 | 0.633 | 0.518 | 0.591
NCI-H2009 | 0.714 | 0.639 | 0.864 | 0.713 | 0.592 | 0.634 | 0.687 | 0.568 | 0.632 | 0.402 | 1.06 | 0.991 | 0.893 | 0.352 | 0.222 | 0.294 | 0.287 | 0.268 | 0.171 | 0.153
NCI-H1755 | 0.908 | 0.883 | 0.852 | 0.911 | 0.789 | 0.631 | 0.711 | 0.747 | 0.721 | 0.704 | 0.867 | 0.943 | 0.862 | 0.915 | 0.887 | 0.791 | 0.804 | 0.784 | 0.77 | 0.88
LU99A | 0.261 | 0.253 | 0.241 | 0.246 | 0.243 | 0.353 | 0.338 | 0.302 | 0.273 | 0.315 | 0.548 | 0.522 | 0.671 | 0.417 | 0.46 | 0.521 | 0.614 | 0.628 | 0.592 | 0.635
ChaGo-K-1 | 0.442 | 0.452 | 0.368 | 0.392 | 0.357 | 0.587 | 0.588 | 0.63 | 0.439 | 0.398 | 1.15 | 1.01 | 0.98 | 0.45 | 0.378 | 0.984 | 0.858 | 0.661 | 0.926 | 0.86
NCI-H2347 | 0.575 | 0.629 | 0.603 | 0.597 | 0.559 | 0.469 | 0.405 | 0.433 | 0.523 | 0.35 | 0.869 | 0.735 | 0.735 | 0.603 | 0.503 | 0.197 | 0.297 | 0.284 | 0.281 | 0.283
NCI-H650 | 0.365 | 0.371 | 0.382 | 0.395 | 0.32 | 0.574 | 0.544 | 0.59 | 0.522 | 0.495 | 0.878 | 0.657 | 0.562 | 0.568 | 0.534 | 0.98 | 0.876 | 1.04 | 0.881 | 0.917
NCI-H1666 | 0.767 | 0.827 | 0.748 | 0.754 | 0.724 | 0.778 | 0.736 | 0.547 | 0.45 | 0.486 | 1.02 | 0.915 | 0.608 | 0.295 | 0.285 |  | 0.796 | 0.65 | 0.584 | 0.517
NCI-H1792 | 0.66 | 0.463 | 0.294 | 0.286 | 0.282 |  | 0.674 | 0.713 | 0.709 | 0.625 | 0.975 | 0.974 | 1.01 | 0.924 | 0.943 | 0.393 | 0.556 | 0.456 | 0.392 | 0.422
PC-3 [JPC-3] | 1.25 | 1.16 | 1.17 | 1.17 | 1.06 | 0.797 | 0.729 | 0.747 | 0.733 | 0.801 | 0.999 | 1 | 0.977 | 0.931 | 0.936 | 0.614 | 0.628 | 0.687 | 0.632 | 0.741
HARA | 1.02 | 0.929 | 1.06 | 0.845 | 0.619 | 0.454 | 0.543 | 0.569 | 0.509 | 0.473 | 1.04 | 1.04 | 1.03 | 1.01 | 0.959 | 0.544 | 0.575 | 0.799 | 0.471 | 0.647
NCI-H727 | 0.586 | 0.643 | 0.752 | 0.68 | 0.627 | 0.483 | 0.713 | 0.531 | 0.631 | 0.556 | 0.817 | 1.01 | 0.787 | 0.677 | 0.578 | 0.401 | 0.382 |  | 0.397 | 0.382
